Patent publication US20170334899A1, “AMINO-SUBSTITUTED ISOTHIAZOLES” (Bayer Pharma Aktiengesellschaft, priority 2014, published 2017)

Experiments:
[1] = molecular target: T1, catalytic domain of human Bub1 (amino acids 704-1085) (Homo sapiens, UniProt O43683); assay: Bub1 kinase assay (TR-FRET); assay type: biochemical; conditions: 10 μM ATP, avg, read-out: Bub1 avg (IC50 [mol/l])
T1 construct: catalytic domain of human Bub1 (amino acids 704-1085); His6 (N); made in house; host or cells: insect cells (Hi5)
Method in brief: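 Readout is the 665/620 nm TR-FRET ratio from anti-phosphoserine antibody, Eu-labelled anti-mouse IgG and streptavidin-XL665, scaled between no-enzyme and uninhibited controls. Reaction: 1 μM biotinylated peptide, 10 μM ATP, 60 min, 22 °C, after 15 min compound preincubation with His6-Bub1 (704-1085, insect-expressed, ~200 ng/ml).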

[2] = system: human cervical tumor cell line HeLa (ATCC CCL-2); assay: SAC-Formation - Nocodazole-Induced Assay; assay type: cell-based; conditions: Homo sapiens, HeLa, 24 h, HeLa cells, nocodazole 0.1 μg/ml together with test compound, decrease of mitotic cells (phospho-histone H3 Ser10)
Method in brief: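 HeLa cells, plated overnight, were treated 24 h at 37 °C with nocodazole (0.1 μg/ml final) plus test compound (0.005–20 μM, 0.5% DMSO) added at the same time. After fixation, anti-phospho-histone H3 Ser10 and Hoechst staining gave the mitotic cell fraction by imaging. Values came from four-parameter Hill fits.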

T1 sequence (O43683 704-1085): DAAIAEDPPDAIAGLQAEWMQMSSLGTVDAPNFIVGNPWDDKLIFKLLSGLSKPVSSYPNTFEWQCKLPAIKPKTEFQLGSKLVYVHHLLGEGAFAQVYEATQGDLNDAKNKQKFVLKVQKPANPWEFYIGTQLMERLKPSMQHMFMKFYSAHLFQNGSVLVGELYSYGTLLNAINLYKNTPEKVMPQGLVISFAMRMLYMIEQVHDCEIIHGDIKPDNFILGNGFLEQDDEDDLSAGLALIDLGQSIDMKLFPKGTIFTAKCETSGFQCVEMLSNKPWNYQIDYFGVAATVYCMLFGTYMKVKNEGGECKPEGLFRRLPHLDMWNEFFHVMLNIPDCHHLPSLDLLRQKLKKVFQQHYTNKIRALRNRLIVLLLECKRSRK

| IC50 [1] [µM] | IC50 [2] [nM] | Structure (SMILES) |
| --- | --- | --- |
| ≥ 20 | 61 | Cc1nsc(Nc2cnc3ccccc3n2)c1C(=O)Nc1ccc(OC2CCN(CC(F)(F)F)CC2)nc1 [Example 21, 3-Methyl-5-(quinoxalin-2-ylamino)-N-(6-{[1-(2,2,2-trifluoroethyl)piperidin-4-yl]oxy}-pyridin-3-yl)-1,2-thiazole-4-carboxamide] |
| ≥ 20 | 580 | CC(=O)N1CCC(Oc2ccc(NC(=O)c3c(C)nsc3Nc3cnc4ccccc4n3)cn2)CC1 [Example 22, N-{6-[(1-acetylpiperidin-4-yl)oxy]pyridin-3-yl}-3-methyl-5-(quinoxalin-2-ylamino)-1,2-thiazole-4-carboxamide] |
| ≥ 20 | 49 | Cc1nsc(Nc2cc(C#N)ccn2)c1C(=O)Nc1ccc(OC2CCN(C(=O)OC(C)(C)C)CC2)nc1 [Example 23, tert-Butyl 4-({5-[({5-[(4-cyanopyridin-2-yl)amino]-3-methyl-1,2-thiazol-4-yl}-carbonyl)amino]pyridin-2-yl}oxy)piperidine-1-carboxylate] |
| ≥ 20 | 20000 | Cc1nsc(Nc2cc(C#N)ccn2)c1C(=O)Nc1ccc(OC2CCNCC2)nc1 [Example 24, 5-[(4-Cyanopyridin-2-yl)amino]-3-methyl-N-[6-(piperidin-4-yloxy)pyridin-3-yl]-1,2-thiazole-4-carboxamide] |
| ≥ 20 | 16 | Cc1nsc(Nc2cc(C#N)ccn2)c1C(=O)Nc1ccc(OC2CCN(CC(F)(F)F)CC2)nc1 [Example 25, 5-[(4-Cyanopyridin-2-yl)amino]-3-methyl-N-(6-{[1-(2,2,2-trifluoroethyl)piperidin-4-yl]oxy}pyridin-3-yl)-1,2-thiazole-4-carboxamide] |
| ≥ 20 | 2400 | CCN1CCC(Oc2ccc(NC(=O)c3c(C)nsc3Nc3cc(C#N)ccn3)cn2)CC1 [Example 26, 5-[(4-Cyanopyridin-2-yl)amino]-N-{6-[(1-ethylpiperidin-4-yl)oxy]pyridin-3-yl}-3-methyl-1,2-thiazole-4-carboxamide] |
| ≥ 20 | 150 | Cc1nsc(Nc2ccc(C#N)cn2)c1C(=O)Nc1ccc(OC2CCN(C(=O)OC(C)(C)C)CC2)nc1 [Example 27, tert-Butyl 4-({5-[({5-[(5-cyanopyridin-2-yl)amino]-3-methyl-1,2-thiazol-4-yl}-carbonyl)amino]pyridin-2-yl}oxy)piperidine-1-carboxylate] |
| > 20 | 730 | Cc1nsc(Nc2cnc3ccccc3n2)c1C(=O)Nc1ccc(N2CCN(C(=O)OC(C)(C)C)CC2)nc1 [Example 248, tert-butyl 4-[5-({[3-methyl-5-(quinoxalin-2-ylamino)-1,2-thiazol-4-yl]carbonyl}amino)pyridin-2-yl]piperazine-1-carboxylate] |
| 1.2 | 960 | Cc1nsc(Nc2cnc3ccccc3n2)c1C(=O)Nc1cccc(C(=O)NC2CC2)c1 [Example 249, N-[3-(cyclopropylcarbamoyl)phenyl]-3-methyl-5-(quinoxalin-2-ylamino)-1,2-thiazole-4-carboxamide] |
| > 20 | 790 | Cc1nsc(Nc2ccc(C#N)cn2)c1C(=O)Nc1cccc(C(=O)NC2CC2)c1 [Example 250, 5-[(5-cyanopyridin-2-yl)amino]-N-[3-(cyclopropylcarbamoyl)phenyl]-3-methyl-1,2-thiazole-4-carboxamide] |
| 0.6 | 1500 | CCNC(=O)c1cccc(NC(=O)c2c(C)nsc2Nc2cnc3ccccc3n2)c1 [Example 251, N-[3-(ethylcarbamoyl)phenyl]-3-methyl-5-(quinoxalin-2-ylamino)-1,2-thiazole-4-carboxamide] |
| > 20 | 530 | CCNC(=O)c1cccc(NC(=O)c2c(C)nsc2Nc2ccc(C#N)cn2)c1 [Example 252, 5-[(5-cyanopyridin-2-yl)amino]-N-[3-(ethylcarbamoyl)phenyl]-3-methyl-1,2-thiazole-4-carboxamide] |
| 0.32 | 830 | Cc1nsc(Nc2cnc3ccccc3n2)c1C(=O)Nc1cccc(C(=O)NC(C)C)c1 [Example 253, N-[3-(isopropylcarbamoyl)phenyl]-3-methyl-5-(quinoxalin-2-ylamino)-1,2-thiazole-4-carboxamide] |
| 3.2 | 2800 | Cc1nsc(Nc2cc(C#N)ccn2)c1C(=O)Nc1cccc(C(=O)NC(C)C)c1 [Example 254, 5-[(4-cyanopyridin-2-yl)amino]-N-[3-(isopropylcarbamoyl)phenyl]-3-methyl-1,2-thiazole-4-carboxamide] |
| > 20 | 3700 | Cc1nsc(Nc2ccc(C#N)cn2)c1C(=O)Nc1cccc(C(=O)NC(C)C)c1 [Example 255, 5-[(5-cyanopyridin-2-yl)amino]-N-[3-(isopropylcarbamoyl)phenyl]-3-methyl-1,2-thiazole-4-carboxamide] |
| > 20 | 1600 | COC(=O)CCCc1ccc(NC(=O)c2c(C)nsc2Nc2cc(C#N)ccn2)cc1 [Example 256, methyl 4-{4-[({5-[(4-cyanopyridin-2-yl)amino]-3-methyl-1,2-thiazol-4-yl}carbonyl)amino]phenyl}butanoate] |
| > 20 | 550 | COC(=O)CCc1cccc(NC(=O)c2c(C)nsc2Nc2cnc3ccccc3n2)c1 [Example 257, methyl 3-[3-({[3-methyl-5-(quinoxalin-2-ylamino)-1,2-thiazol-4-yl]carbonyl}amino)phenyl]propanoate] |
| > 20 | 600 | Cc1nsc(Nc2cnc3ccccc3n2)c1C(=O)Nc1cccc(NS(=O)(=O)C2CCN(C(=O)OC(C)(C)C)CC2)c1 [Example 258, tert-butyl 4-{[3-({[3-methyl-5-(quinoxalin-2-ylamino)-1,2-thiazol-4-yl]carbonyl}amino)phenyl]sulfamoyl} piperidine-1-carboxylate] |
| > 20 | 400 | Cc1nsc(Nc2cnc(C(F)(F)F)cn2)c1C(=O)Nc1ccc(C(=O)NC2CCN(CC(F)F)CC2)cc1 [Example 259, N-(4-{[1-(2,2-difluoroethyl)piperidin-4-yl]carbamoyl}phenyl)-3-methyl-5-{[5-(trifluoromethyl)pyrazin-2-yl]amino}-1,2-thiazole-4-carboxamide] |
| > 20 | 87 | Cc1nsc(Nc2cnc(C(F)(F)F)cn2)c1C(=O)Nc1ccc(C(=O)N2CCN(CC(F)(F)F)CC2)cc1 [Example 260, 3-methyl-N-(4-{[4-(2,2,2-trifluoroethyl)piperazin-1-yl]carbonyl}phenyl)-5-{[5-(trifluoromethyl)pyrazin-2-yl]amino}-1,2-thiazole-4-carboxamide] |
| > 20 | 1100 | CCN1CCN(C(=O)c2ccc(NC(=O)c3c(C)nsc3Nc3cnc(C(F)(F)F)cn3)cc2)CC1 [Example 261, N-{4-[(4-ethylpiperazin-1-yl)carbonyl]phenyl}-3-methyl-5-{[5-(trifluoromethyl)pyrazin-2-yl]amino}-1,2-thiazole-4-carboxamide] |
| > 20 | 260 | Cc1nsc(Nc2cnc(C(F)(F)F)cn2)c1C(=O)Nc1ccc(C(=O)N2CCN(C)CC2)cc1 [Example 262, 3-methyl-N-{4-[(4-methylpiperazin-1 yl)carbonyl]phenyl}-5-{[5-(trifluoromethyl)pyrazin-2-yl]amino}-1,2-thiazole-4-carboxamide] |
| > 20 | 920 | Cc1nsc(Nc2cc(C#N)ccn2)c1C(=O)Nc1ccc(OC2CCN(CC(F)F)CC2)nc1 [Example 263, 5-[(4-cyanopyridin-2-yl)amino]-N-(6-{[1-(2,2-difluoroethyl)piperidin-4-yl]oxy}pyridin-3-yl)-3-methyl-1,2-thiazole-4-carboxamide] |
| > 20 | 35 | Cc1nsc(Nc2cnc(C(F)(F)F)cn2)c1C(=O)Nc1ccc(F)c(OC2CCN(CC(F)(F)F)CC2)c1 [Example 264, N-(4-fluoro-3-{[1-(2,2,2-trifluoroethyl)piperidin-4-yl]oxy}phenyl)-3-methyl-5-{[5-(trifluoromethyl)pyrazin-2-yl]amino}-1,2-thiazole-4-carboxamide] |
| > 20 | 190 | Cc1nsc(Nc2cnc(C(F)(F)F)cn2)c1C(=O)Nc1ccc(F)c(OC2CCN(CC(F)F)CC2)c1 [Example 265, N-(3-{[1-(2,2-difluoroethyl)piperidin-4-yl]oxy}-4-fluorophenyl)-3-methyl-5-{[5-(trifluoromethyl)pyrazin-2-yl]amino}-1,2-thiazole-4-carboxamide] |
| > 20 | 150 | Cc1nsc(Nc2cnc(C(F)(F)F)cn2)c1C(=O)Nc1ccc(F)c(OC2CCN(CCF)CC2)c1 [Example 266, N-(4-fluoro-3-{[1-(2-fluoroethyl)piperidin-4-yl]oxy}phenyl)-3-methyl-5-{[5-(trifluoromethyl)pyrazin-2-yl]amino}-1,2-thiazole-4-carboxamide] |
| > 20 | 47 | Cc1nsc(Nc2cncc(C(F)(F)F)n2)c1C(=O)Nc1ccc(F)c(OC2CCN(CC(F)(F)F)CC2)c1 [Example 267, N-(4-fluoro-3-{[1-(2,2,2-trifluoroethyl)piperidin-4-yl]oxy}phenyl)-3-methyl-5-{[6-(trifluoromethyl)pyrazin-2-yl]amino}-1,2-thiazole-4-carboxamide] |
